Data as given in patent publication US6338963B1, “Use of carbon monoxide dependent guanylyl cyclase modifiers to stimulate neuritogenesis” (NeoTherapeutics, Inc., priority 1994, dated 2002).

What was measured:
C57BL/6 mice = experiment: Ethanol-induced working memory deficit (win-shift); assay type: in vivo; conditions: Ethanol 0.5 gm/kg i.p. ten minutes prior to testing
Protocol: Six month old male C57BL/6 mice were evaluated in the win-shift model in combination with treatment with ethanol, a non-specific memory suppressant, and AIT-082. Subjects were treated with saline (control) or AIT-082 (30 mg/kg. i.p.) 1 hour prior to testing. Ethanol was administered at a dose of 0.5 gm/kg i.p. ten minutes prior to testing.

PC12 cells = experiment: Neuritogenesis in PC12 cells; assay type: cell-based, rat
Protocol: Much of the work performed in the characterization of the compounds of the present invention involved the use of PC12 cells. These cells are derived from a rat pheochromocytoma and when grown in the presence of NGF, extend neurites, cease cell division and assume many characteristics of sympathetic neurons. When cultured in the absence of nerve growth factor (NGF), few PC12 cells have neurites greater than one cell diameter. Addition of saturating concentrations of NGF for 48 hours stimulates neurite outgrowth in about 20-35% of the cells. Because they constitute a homogeneous population of neuronal-like cells, without contaminating astroglia type cells, it is possible to study the direct effects of the purine based compounds on neurite outgrowth in these cells.
Cells cultured in RPMI 1640 with 1.5% horse serum and 1.5% fetal bovine serum were re-plated onto poly-ornithine coated 24-well culture plates (2.5×10^4 cells per well). AIT-082 and NGF were added to the various cultures immediately upon plating. After 48 hours, medium was removed and the cells irnmediately fixed in 10% formalin and PBS for 10 minutes. Cells and neurites were counted within 2 days of fixation.
A neurite was defined as a process extending from the cell at least 1 cell body diameter in length and displaying a growth cone at its tip. For each treatment, 2 representative microscope fields were counted from each of 6 sister cultures receiving identical treatments. The total number of cells counted per well (approximately 100 cells) and the total number of cells containing neurites in each well were used to determine fraction of neurite-bearing cells. The mean values (±SEM) were then determined for each of the treatments. To facilitate comparison neurite outgrowth was expressed relative to the proportion of cells bearing neurites in the presence of NGF alone (NGF=100%). The effects of compounds with and without NGF were compared by analysis of variance (ANOVA) followed by Tukey's test for significance.
The results are shown in FIG. 3 where the curve represents different levels of AIT-082 plus saturating concentrations (40 ng/ml) NGF. The center horizontal line represents control values for cells cultured in the presence of 40 ng/ml NGF alone. Upper and lower horizontal lines are indicative of confidence limits of NGF alone as determined using standard statistical methods.

[1] = system: cGMP levels in PC12 cells; experiment: cGMP levels in PC12 cells (radioimmunoassay); assay type: cell-based, rat; conditions: NGF-primed PC12 cells
Protocol: Initially, PC-12 cells were primed with 40 ng/ml NGF for 3 days in low serum medium (1.5% horse serum+5% fetal calf serum). Cells were seeded onto assay plates in low serum medium containing 40 ng/ml NGF and incubated for 1 hour. The medium was changed to low arginine medium (80 μM) with no serum and NGF and papaverine ([…]) where indicated. Test compounds were added for the indicated time and the reaction was stopped by adding 5% TCA containing 10,000 dpm of ^3H-cGMP. cGMP was assayed by the radioimmunoassay method of Maurice (Mol. Pharmacol. 37: 671-681, 1990). TCA was purified by adding powdered charcoal (5 g) and filtering the mixture through Whatman #1 paper. This removed contaminants in the TCA that otherwise interfere with the radioimmunoassay (RIA) of cGMP.
It was necessary to purify the cGMP from cAMP and other contaminants before radioimmunoassay since these other materials can interfere with the assay. Briefly, the TCA solution was applied to Dowex columns (50W-8X, 200-400 mesh) and eluted. A neutral alumina column was then placed under each Dowex column. The cGMP was eluted from the Dowex columns into neutral alumina columns by adding 4 mL of 0.05 M HCl to each Dowex column. The neutral alumina columns were then sequentially rinsed with 2 ml of HCl, 4 mL water and finally with 0.2 M sodium acetate (pH 6.2). The cGMP collected for the RIA eluted in 1 ML of sodium acetate with a recovery between 50-65%. The cGMP was assayed using a Dupont RIA kit.

rat cultured astrocytes [2] = experiment: Release of radioactively labeled adenine-based purines from rat cultured astrocytes; assay type: cell-based; conditions: 300 μM, 1 hour
Protocol: The experiments were carried out on cultured astrocytes of rat hippocampus at the fourth day in vitro (DIV), obtained from primary cultures replated in 35 mm Petri dishes ([…] cells/dish) and preloaded with [^3H]-adenosine (5×10^−8 M for a specific activity of 20.0 Ci/mM) for 30 minutes at 37° C.
The effect of AIT-082 on the proportional release of radioactively labeled adenine nucleosides and nucleotides from rat cultured astrocytes is shown in FIGS. 29A and 29B. Culture medium collected during the first hour of the release was analyzed by high performance liquid chromatography (HPLC) and the radioactivity associated with the different adenine compounds was measured and expressed as a percentage of the total radioactivity released. The results are shown for ATP, ADP, and AMP in FIG. 29A, and for adenosine, inosine, and hypoxanthine in FIG. 29B.

neocortical astrocytes = experiment: NGF-like immunoreactivity in astrocyte culture medium (ELISA); assay type: cell-based, mouse; conditions: astrocytes incubated with different concentrations
Protocol: Astrocytes appear to proliferate in response to extracellular guanosine or guanosine triphosphate (GTP). GTP or guanosine may also stimulate the release of trophic factors from cultures of neocortical astrocytes from neonatal mouse brains. Astrocytes were incubated with different concentrations of guanosine or GTP respectively. Neurotrophin imunoreactivity in the culture medium from treated cells was then measured by ELISA.
Briefly, 96 well Falcon plates (Fisher) were coated with […] of sheep mono-specific anti-NGF IgG (affinity column purified) contained in 0.1M sodium carbonate buffer pH 9.6. After an overnight incubation at 4° C. blocking solution (PBS with 10% goat serum) was added to remove excess antibody. After a four hour incubation at room temperature the plates were washed three times with PBS containing 0.05% Tween 20. The conditioned media and standard 2.5S HPLC purified NGF were added and incubated overnight. The next day plates were washed 3 times with PBS-0.05% Tween 20. The secondary antibody, rabbit mono-specific anti-NGF IgG conjugated with β-galactosidase (Pierce-SPDP method) (1:500 dilution) was added. The plates were incubated overnight at 4° C. The next day the plates were washed 3 times with PBS-0.05% Tween 20. […]
The ELISA assay detected neurotrophins NGF and NT-3 with ahnost equal affinity and BDNF with 100 times less affinity. […]

rat cultured astrocytes [3] = experiment: Release of radioactively labeled adenine-based purines from rat cultured astrocytes; assay type: cell-based; conditions: 300 μM
mice = experiment: T-maze memory test with atropine co-administration; assay type: in vivo; conditions: AIT-082 30 mg/kg i.p. 2 hr prior; atropine 0.5 mg/kg i.p. 1/2 hour prior to testing, day 3
Protocol: To elucidate the mechanisms by which AIT-082 improves memory, attempts were made to block its actions by co-administration of the short-acting cholinergic antagonist atropine to mice and subjecting them to simple learning tests. Atropine reportedly has the ability to block the effects of physostigmine and THA. Mice were injected with AIT-082 (30 mg/kg) 2 hr prior to testing on days 1 through 4. Atropine (0.5 mg/kg) was injected ½ hour prior to testing or 1.5 hours after AIT-082 on day 3 only. All injections were i.p. After a reference run to determine where the reward was placed in a T-maze, the mice were retested to determine if they could remember the location of the reward. The percentage of correct responses is graphically represented in FIG. 2.

`CCO` [Ethanol, ethanol, reference compound] was tested, and the “Correct trials (mean number of correct responses per 10 trials ± S.E.)” value (C57BL/6 mice) was 6.5 ± 26.
With `Nc1nc2c(ncn2[C@@H]2O[C@H](COP(=O)(O)OP(=O)(O)OP(=O)(O)O)[C@@H](O)[C@H]2O)c(=O)[nH]1` [GTP, guanosine triphosphate, reference compound] the “neurite outgrowth in the absence of NGF” value (PC12 cells; compound alone) was “elicited neurite outgrowth on its own”, the “enhancement of NGF-induced neurite outgrowth” value (PC12 cells; in the presence of NGF, 48 hours) was “did enhance neuritogenesis in the presence of NGF” and the “cGMP in PC12 cells” value [1] was “did not increase levels of cGMP”. The “ADP, proportional release” value (rat cultured astrocytes [2]) was “(17.8 ± 2.6) percentage of the total [^3H]-purines released”, the “Adenosine, proportional release” value (rat cultured astrocytes [2]) was “(4.0 ± 0.5) percentage of the total [^3H]-purines released” and the “Inosine, proportional release” value (rat cultured astrocytes [2]) was “(14.0 ± 1.7) percentage of the total [^3H]-purines released”. For the same compound, the “NGF-like immunoreactivity in the culture medium” value (neocortical astrocytes) was “increased the amount of NGF-like immunoreactivity”, the “ADP, radioactivity released in the culture medium” value (rat cultured astrocytes [3]; 1 hour) was 2.10 ± 0.31 cpm × 10^3 and the “AMP, proportional release” value (rat cultured astrocytes [3]; 1 hour) was “(23.5 ± 2.4) percentage of the total [^3H]-purines released”. The “AMP, radioactivity released in the culture medium” value (rat cultured astrocytes [3]; 1 hour) was 2.76 ± 0.28 cpm × 10^3, the “ATP, proportional release” value (rat cultured astrocytes [3]; 1 hour) was “(10.9 ± 1.1) percentage of the total [^3H]-purines released” and the “ATP, radioactivity released in the culture medium” value (rat cultured astrocytes [3]; 1 hour) was 1.28 ± 0.13 cpm × 10^3. For the same compound, the “Adenosine, radioactivity released in the culture medium” value (rat cultured astrocytes [3]; 1 hour) was 0.47 ± 0.06 cpm × 10^3, the “Hypoxanthine, proportional release” value (rat cultured astrocytes [3]; 1 hour) was “(18.4 ± 2.6) percentage of the total [^3H]-purines released” and the “Hypoxanthine, radioactivity released in the culture medium” value (rat cultured astrocytes [3]; 1 hour) was 2.20 ± 0.31 cpm × 10^3. For the same compound, the “Inosine, radioactivity released in the culture medium” value (rat cultured astrocytes [3]; 1 hour) was 1.65 ± 0.2 cpm × 10^3, the “ADP, proportional release” value (rat cultured astrocytes [3]; 3 hours) was “(8.6 ± 0.7) percentage of the total [^3H]-purines released” and the “ADP, radioactivity released in the culture medium” value (rat cultured astrocytes [3]; 3 hours) was 1.05 ± 0.09 cpm × 10^3. The “AMP, proportional release” value (rat cultured astrocytes [3]; 3 hours) was “(40.0 ± 3.9) percentage of the total [^3H]-purines released”, the “AMP, radioactivity released in the culture medium” value (rat cultured astrocytes [3]; 3 hours) was 4.32 ± 0.48 cpm × 10^3 and the “ATP, proportional release” value (rat cultured astrocytes [3]; 3 hours) was “(4.4 ± 0.4) percentage of the total [^3H]-purines released”. The “ATP, radioactivity released in the culture medium” value (rat cultured astrocytes [3]; 3 hours) was 0.54 ± 0.05 cpm × 10^3, the “Adenosine, proportional release” value (rat cultured astrocytes [3]; 3 hours) was “(2.5 ± 0.2) percentage of the total [^3H]-purines released” and the “Adenosine, radioactivity released in the culture medium” value (rat cultured astrocytes [3]; 3 hours) was 0.31 ± 0.02 cpm × 10^3. For the same compound, the “Hypoxanthine, proportional release” value (rat cultured astrocytes [3]; 3 hours) was “(25.0 ± 3.7) percentage of the total [^3H]-purines released”, the “Hypoxanthine, radioactivity released in the culture medium” value (rat cultured astrocytes [3]; 3 hours) was 3.11 ± 0.45 cpm × 10^3 and the “Inosine, proportional release” value (rat cultured astrocytes [3]; 3 hours) was “(9.7 ± 1.2) percentage of the total [^3H]-purines released”. For the same compound, the “Inosine, radioactivity released in the culture medium” value (rat cultured astrocytes [3]; 3 hours) was 1.19 ± 0.19 cpm × 10^3.
In the case of `CN1[C@@H]2CC[C@H]1C[C@@H](OC(=O)C(CO)c1ccccc1)C2` (stereo partly drawn) [atropine], the “effect of atropine on memory enhancement by AIT-082” value (mice) is reported as “blocked the memory enhancing activity of AIT-082”.
